From ChEMBL document CHEMBL1201862, “PubChem BioAssay data set” (2004) come the findings set out here.

Test in all cases: NCI anticancer screen, dose series, 48 h
For experiment [1], the system named is MDA-MB-231.
In experiment [2] the test system is UO-31.
The test system of experiment [3] is OVCAR-3.
The subject of experiment [4] is HCT-116.
Experiment [5] deals with U-251.
Experiment [6] deals with KM12.
In experiment [7] the test system is HOP-62.
In experiment [8] the test system is COLO 205.
The subject of experiment [9] is OVCAR-8.
Experiment [10] relates to UACC-62.
Experiment [11] has as its system 786-0.
Experiment [12] deals with CAKI-1.
In experiment [13] the test system is OVCAR-4.
Experiment [14] relates to RPMI-8226.
For experiment [15], the system named is SF-539.
Experiment [16] relates to SK-OV-3.
Experiment [17] concerns K562.
In experiment [18] the test system is NCI-H23.
In experiment [19] the test system is MCF7.
Experiment [20] deals with SK-MEL-2.

Molecules are shown by their SMILES.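 Values below derive from 48-hour exposures of cells grown in 96-well plates, with endpoints linearly interpolated between the two concentrations bracketing the appropriate inhibition level. GI50: concentration for 50% inhibition of growth.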 The source made the active and inactive calls. Cut-off read from the data, not from the text of the source: active = GI50 up to about 1.1 µM and inactive = higher.

Turning to `O=C(C(=O)c1cc(-c2ccccc2)nc2ccc3ccccc3c12)c1ccccc1`, the GI50 was > 100 µM (inactive) in experiment [1]; > 100 µM (inactive) in experiment [2]; 67.1 µM (inactive) in [3]; 10.6 µM (inactive) in experiment [4]; 34.5 µM (inactive) in experiment [5]; 31.3 µM (inactive) in experiment [6]. The GI50 in experiment [7] is 31.6 µM (inactive); in [8], 88.1 µM (inactive); in experiment [9] it was 61.2 µM (inactive); in [10], 38.8 µM (inactive); in [11], 33.5 µM (inactive); in experiment [12], 58.3 µM (inactive). Also, the GI50 is 21.1 µM (inactive) in [13]; > 100 µM (inactive) in experiment [14]; 32.1 µM (inactive) in [15]; 46.7 µM (inactive) in experiment [16]; 18.5 µM (inactive) in [17]; 34.1 µM (inactive) in [18]. Also, the GI50 in [19] is 28.1 µM (inactive).
Turning to `CCOC(=O)C(NC(=O)CC)(Nc1ccc(S(=O)(=O)Nc2ncccn2)cc1)C(F)(F)F` (stereo not given), the GI50 in experiment [1], in experiment [2], in experiment [3], in experiment [4], in experiment [5] and in [6] was > 100 µM (inactive) in each case. For the same compound, the GI50 in experiment [7], in experiment [8], in experiment [9], in experiment [10], in experiment [11] and in experiment [12] was > 100 µM (inactive) each time. Further, the GI50 in experiment [13], in [14], in experiment [15], in [16], in experiment [17] and in [18] was > 100 µM (inactive) in each case. In addition, the GI50 in [19] was > 100 µM (inactive).
Regarding `C=CCC(SC)C1=C(C)C(=O)c2ccccc21` (stereo not given), the GI50 in [1], in experiment [2], in experiment [3], in experiment [5], in experiment [20] and in experiment [6] was > 10 µM (inactive) throughout. The GI50 in [7], in experiment [9], in experiment [10], in [11], in [14] and in [15] was > 10 µM (inactive) each time. Moreover, the GI50 in [16], in [17], in experiment [18] and in experiment [19] was > 10 µM (inactive) in each case.
For the compound `O=C(OCC(Cl)(Cl)Cl)N1CC[C@@H](C2CCCCC2)C1`, the GI50 in [1] was 43.3 µM (inactive); in [2], 20.7 µM (inactive); in experiment [3], 18.1 µM (inactive); in experiment [4], 29.6 µM (inactive); in experiment [5], 0.1 µM (active); in experiment [20], 18.3 µM (inactive). The GI50 in [6] was 17 µM (inactive); in experiment [7], 20.4 µM (inactive); in experiment [8] it was 23.6 µM (inactive); in experiment [10] it was 27.7 µM (inactive); in experiment [11], 20.6 µM (inactive); in [12], 27 µM (inactive). In addition, the GI50 in experiment [13] is 18.6 µM (inactive); in experiment [16] it was 42.6 µM (inactive); in experiment [17] it was 21.5 µM (inactive); in experiment [18], 20.2 µM (inactive); in experiment [19], 22.1 µM (inactive).
Consider `Cc1cc2c(c(/C=N/Cc3ccccc3)c1)OC1(C=C2)Oc2ccccc2C(=O)N1C` (stereo not given), for which the GI50 was 27.5 µM (inactive) in [1]; 14 µM (inactive) in experiment [2]; 37.4 µM (inactive) in experiment [3]; 21 µM (inactive) in [4]; 29.4 µM (inactive) in [5]; 24.9 µM (inactive) in experiment [20]. In addition, the GI50 in experiment [6] was 25.2 µM (inactive); in experiment [7], 31.6 µM (inactive); in experiment [8] it was 17.9 µM (inactive); in experiment [9], 16.5 µM (inactive); in experiment [10], 22.4 µM (inactive); in experiment [11], 29.4 µM (inactive). Moreover, the GI50 in [12] is 16.6 µM (inactive); in experiment [13], 29.2 µM (inactive); in [14], 12.1 µM (inactive); in experiment [16], 37.5 µM (inactive); in experiment [17], 14.1 µM (inactive); in experiment [18], 24.8 µM (inactive). Also, in [19], the GI50 is 28.9 µM (inactive).
`COc1ccccc1N1C(=O)CSC1c1c[nH]c2ccccc12` (stereo not given): the GI50 in experiment [1] was 3.69 µM (inactive); in experiment [2] it was 58.1 µM (inactive); in experiment [3], > 100 µM (inactive); in experiment [4], > 100 µM (inactive); in [5], > 100 µM (inactive); in experiment [20], > 100 µM (inactive). Moreover, the GI50 in experiment [6], in [7], in experiment [8], in [9], in [10] and in [11] was > 100 µM (inactive) throughout. Further, the GI50 in experiment [13], in experiment [14], in experiment [15], in [16], in experiment [17] and in experiment [18] was > 100 µM (inactive) each time. In addition, the GI50 in experiment [19] is > 100 µM (inactive).
In the case of `O=S1(=O)c2cnccc2N=C(NCc2cccc3ccccc23)N1c1ccccc1`, the GI50 in [1] is > 43 µM (inactive); in experiment [2], > 56.5 µM (inactive); in experiment [3], > 100 µM (inactive); in [4] it was 9.35 µM (inactive); in [5] it was 43.8 µM (inactive); in [6], > 100 µM (inactive). The GI50 was > 100 µM (inactive) in [7]; > 85.7 µM (inactive) in [8]; > 93.1 µM (inactive) in [9]; > 22.4 µM (inactive) in [10]; 15 µM (inactive) in experiment [11]; > 100 µM (inactive) in experiment [12]. In addition, the GI50 was > 91.2 µM (inactive) in experiment [13]; 13.6 µM (inactive) in experiment [14]; > 100 µM (inactive) in experiment [15]; > 100 µM (inactive) in experiment [16]; 29.4 µM (inactive) in experiment [17]; 36.2 µM (inactive) in experiment [18]. Further, in [19], the GI50 is 36.6 µM (inactive).
In the case of `Cc1ncc(-c2nnnn2-c2ccccc2)c(C(=O)O)n1`, the GI50 was > 100 µM (inactive) in experiment [1]; > 100 µM (inactive) in experiment [2]; > 100 µM (inactive) in experiment [3]; > 100 µM (inactive) in experiment [4]; > 100 µM (inactive) in experiment [5]; 33.3 µM (inactive) in experiment [20]. The GI50 in [6], in experiment [7], in [8], in [9], in [10] and in experiment [11] was > 100 µM (inactive) in each case. The GI50 in experiment [12], in experiment [14], in [15], in experiment [16], in [17] and in [18] was > 100 µM (inactive) each time. Besides, in [19], the GI50 is > 100 µM (inactive).
`COC[C@@H](/N=C/c1ccc([N+](=O)[O-])cc1)C(C)C`: the GI50 is 3.24 µM (inactive) in experiment [1]; > 100 µM (inactive) in experiment [2]; 26 µM (inactive) in [4]; > 100 µM (inactive) in [5]; > 100 µM (inactive) in experiment [20]; > 100 µM (inactive) in experiment [6]. Besides, the GI50 was > 100 µM (inactive) in experiment [9]; > 100 µM (inactive) in experiment [10]; > 100 µM (inactive) in experiment [11]; > 100 µM (inactive) in [12]; > 100 µM (inactive) in [13]; 25.2 µM (inactive) in experiment [14]. The GI50 is > 100 µM (inactive) in experiment [16], 34.1 µM (inactive) in experiment [17], > 100 µM (inactive) in experiment [18] and 95.1 µM (inactive) in experiment [19].
For `S=c1nc(Nc2ccc(Cl)cc2)c2c3c(sc2[nH]1)CCCC3`, the GI50 in experiment [1], in experiment [2], in experiment [3], in [4], in experiment [5] and in experiment [20] was > 100 µM (inactive) throughout. In addition, the GI50 in experiment [6], in experiment [7], in experiment [8], in experiment [10], in experiment [11] and in experiment [12] was > 100 µM (inactive) each time. Also, the GI50 in experiment [13] is > 100 µM (inactive); in experiment [14] it was 24.4 µM (inactive); in experiment [16] it was > 100 µM (inactive); in [17], 38.5 µM (inactive); in [18] it was 45.1 µM (inactive); in experiment [19] it was 90.2 µM (inactive).
Consider `CCOC(=O)C(C(=O)OCC)C(NC(=O)Nc1cc(C(F)(F)F)ccc1OC)(C(F)(F)F)C(F)(F)F`, for which the GI50 is 17.4 µM (inactive) in [1]; 21 µM (inactive) in [2]; 26.1 µM (inactive) in experiment [3]; 36.2 µM (inactive) in [4]; 29.2 µM (inactive) in [5]; 26.9 µM (inactive) in [6]. Further, the GI50 in experiment [7] was 25.4 µM (inactive); in experiment [8], 17.8 µM (inactive); in [9], 31.6 µM (inactive); in [10], 22.5 µM (inactive); in experiment [11], 24.6 µM (inactive); in [12], 29.4 µM (inactive). Besides, the GI50 in experiment [13] is 23.2 µM (inactive); in experiment [14] it was 18.8 µM (inactive); in experiment [15] it was 19.5 µM (inactive); in experiment [16], 47.6 µM (inactive); in experiment [17], 24.2 µM (inactive); in [18], 35.3 µM (inactive). Moreover, in [19], the GI50 was 37.2 µM (inactive).
